In US7687079B2, “Methods of treating ileus” (priority 2002, dated 2010):
Entries after “also recorded” stand apart in the source; their conditions may differ.

How the values were obtained:
PGE2 = PGE2 release from muscularis extracts (marker of COX-2 activity); format: in vivo, mouse; details: 24 hr
Procedure: Protein and Nitric Oxide Determinations. The small bowel of control and mice subjected to intestinal manipulation was removed under sterile conditions, 4 or 24 hours post-operatively, leaving the colon in situ. The small intestine was transferred to a beaker containing chilled Hanks balanced salt solution (Sigma, St. Louis, Mo.) with 200 U/ml penicillin G and 200 μg/ml streptomycin (HBSS), the lumen flushed, and the tissue transferred to a second beaker of HBSS. The muscularis was harvested as described above for real time RT-PCR. Tissues were maintained under sterile conditions at 3 to 5° C. throughout the harvesting procedure. Isolated muscularis was blotted onto sterile gauze, and the wet weight determined to obtain aliquots of 40 to 60 mg. […]
After the incubation period, the muscle tissue was pelleted, and aliquots of culture medium were frozen in liquid nitrogen and stored at −80° C. The levels of IL-6, IL-1β, PGE2, and IL-10 proteins secreted into the culture medium were determined using commercially available ELISA kits (R&D Systems, Minneapolis, Minn.) according to the manufacturer's instructions. […] Nitrate/nitrate levels were measured 24 hrs postoperatively using commercially available test kit (Oxford Biomedical Research, Oxford, Mich.) and quantified according to the manufacturer's directions. […]

[1] = test system: small intestinal circular muscle; assay: in vitro circular muscle contractility (spontaneous and bethanechol-stimulated) after IM; format: in vivo, mouse
Description: Surgical Manipulation. Mice were anesthetized with inhaled isoflurane and the abdomen opened by midline laparotomy. The small intestine was eventrated and gently compressed along its entire length using moistened sterile cotton applicators. This procedure is designed to simulate “running” of the bowel commonly performed during abdominal surgery in the clinical setting. The bowel was repositioned in the abdominal cavity and the incision closed by two layers of continuous sutures. The duration of the procedure was approximately 15 minutes and the animals moved freely about their cage within 20 minutes of withdrawal of anesthetic.
CO Inhalation Treatment. Mice housed in cages were placed in plexiglass chambers that were continuously ventilated with air or with air containing CO (250 ppm). A sampling port was provided to continuously monitor carbon monoxide concentrations within the chamber. Animals had free access to food and water at all times. Mice were exposed to CO or air 1 hour prior to laparotomy, removed for surgical manipulation, and then returned to the chamber for 24 hours. Mice not undergoing surgery were removed from the chamber for a similar length of time and then returned to the chamber for 24 hours.
Mice were anesthetized and killed by exsanguination at the end of the 24-hour chamber treatment with CO or room air. In vitro circular muscle mechanical activity was measured as previously described in Eskandari et al. (Am. J. Physiol. 273:G727-G734 (1997)). Briefly, a segment of mid small bowel was pinned in a Sylgard™ (Midland, Mich.) lined dissecting dish containing pre-oxygenated Krebs-Ringer-bicarbonate buffer (KRB; in mM: 137.4 Na^+, 5.9 K^+, 2.5 Ca^2+, 1.2 Mg^2+, 134 Cl^−, 15.5 HCO3^−, 1.2 H2PO4−, and 11.5 glucose), gassed with 97% O2/3% CO2 to establish a pH of 7.4. The intestine was opened along the mesenteric border, and the mucosa removed by stripping with fine forceps. Full-thickness strips of muscularis (1×6 mm) cut parallel to the circular muscle layer were mounted in standard horizontal mechanical organ chambers and were continuously superfused with preoxygenated KRB maintained at 37° C. One end of each strip was attached by ligature to a fixed post and the other to an isometric force transducer (WPI, Sarasota, Fla.). Strips were allowed to equilibrate for 1 hour, after which they were incrementally stretched to Lo (length at which maximal spontaneous contraction occurs). After a baseline recording period of 30 min, contractility-response curves were generated by exposing the tissues to increasing concentrations of the muscarinic agonist bethanechol (0.3 to 300 μM) for 10 minutes, followed by intervening 10-minute wash periods. Contractile activity was calculated by integrating the area under the trace. The response was normalized to the amount of tissue by converting the weight (1.03 mg/mm^2) and length of the strip to square millimeters of tissue, and reported as g/s/mm^2. Intestinal transit was measured in controls and manipulated animals 24 hours postoperatively by evaluating the intestinal distribution of a non-absorbable fluorescein-labeled dextran (MW 70,000). Animals were lightly sedated with isofluran and fed orally with labeled dextran (100 μl of 25 mg/ml stock solution). Ninety minutes after administration, the animal was sacrificed and the entire bowel from stomach to distal colon was collected. The contents of the stomach, small bowel (divided into 10 segments of equal length), the cecum, and colon (3 segments of equal length) were each minced in 1 ml of saline and mixed vigorously to release the dextran present in each segment. After pelleting the intestinal tissue and chyme, aliquots of the cleared supernatant were read in duplicate on a plate reader (CytoFluor II; excitation wavelength 530 nm and emission 590 nm) for quantification of the fluorescent signal in each bowel segment. […]

Which results are given for `[C-]#[O+]` [CO, carbon monoxide]?
IM-induced PGE2 release (PGE2; IM + CO): no effect; PGE2 release (PGE2; control muscularis, inhalation of CO alone): significant increases; also recorded: significantly increased; bethanechol-induced contractile activity ([1]; IM + CO): restored contractile activity to control levels; peak contractile force ([1]; IM + CO 250 ppm, 100 μM bethanechol): 3.6±0.7 g/s/mm^2; spontaneous contractile activity (rythmicity) ([1]; IM mice treated with CO): significantly improved; also recorded: restored; bethanechol-induced contractile activity ([1]; control animals + CO): no effect; spontaneous contractility ([1]; control mice + CO 24 hr): no effect; peak contractile force ([1]; control mice, CO alone, bethanechol): 3.2±0.5 g/s/mm^2
